Experimental findings from ChEMBL document CHEMBL1795241 (Bioorg Med Chem, 2011) are described below.

The subject of one assay is LNCaP. In words: cells. The settings on record: Homo sapiens, 144 h.
For assay [1], the target named is Lysine-specific histone demethylase 1A (Homo sapiens, UniProt O60341).
Description: Inhibition of human recombinant His-tagged full length LSD1 expressed in Escherichia coli BL21 (DE3) assessed as inactivation constant preincubated for 20 mins with substrate measured after 30 mins by AmplexRed based fluorescence quenching assay

For orientation: IC50 means the concentration needed to halve the response being measured. A high value points to a need for much substance. The Ki is the equilibrium dissociation constant of an inhibitor or competing ligand from its target.

Description for LNCaP: Growth inhibition of human LNCAP cells after 6 days

As to `COc1ccc([C@@H]2C[C@H]2N)cc1`, in the assay on LNCaP, the IC50 was found to be 1710 µM.
Compound `N[C@@H]1C[C@H]1c1ccc(Br)cc1` gave an IC50 in the assay on LNCaP of 111 µM.
As for `N[C@@H]1C[C@H]1c1cccc(Br)c1`, in the assay on LNCaP, half-maximal inhibition (IC50) was put at 129 µM.
Still for that read-out and setting: next, `N[C@@H]1C[C@H]1c1ccccc1Br`: 5870 µM.
The same measure, in the same setting: the figure for `N[C@@H]1C[C@H]1c1ccc(-c2ccccc2)cc1` is 110 µM.
As to `N[C@@H]1C[C@H]1c1cccc(-c2ccccc2)c1`, in assay [1], the Ki is above 100 µM. The compound further gave an IC50 in the assay with LNCaP of 226 µM.
For `N[C@@H]1C[C@H]1c1ccccc1-c1ccccc1` the same measures were above 100 µM and 181 µM.
